The source of these data is article PMC10707934, “Design and Synthesis of Novel α-Methylchalcone Derivatives, Anti-Cervical Cancer Activity, and Reversal of Drug Resistance in HeLa/DDP Cells” (Molecules, 2023).

The test system of assay [1] is HeLa cells. As to the kind of experiment: MTT anti-proliferation assay, HeLa. Type of assay: cell-based, human. The note with it: Homo sapiens, 48 h, mean ± SD. The protocol:
All cell types, at a volume of 200 µL per well, were inoculated in 96-well plates at a density of 2.5 × 10^4 cells / mL and cultured for 24 h in an incubator with 5% CO2 at 37 °C. The old culture medium was replaced with 200 µL of fresh medium per well containing positive compounds, at concentrations of 1, 6.25, 12.5, 25, 50, and 100 μM. After 48 h of culture, 20 µL per well of 5 mg·mL^−1 MTT solution was added. After 4 h of culture, the old solution was discarded, and 150 µL per well of DMSO solution was added. Using an enzyme labeler (Thermo Fisher Scientific, Multiskan GO, Waltham, MA, USA), the plates were shaken for 10 min, OD values were determined at 490 nm, and the inhibition rate was calculated. Non-linear regression fitting of the cell growth rate was carried out using SPSS 23.0, and the IC50 of the compound was calculated. The inhibition rate was calculated using the formula: [(ODempty − ODtest)/(ODempty − ODnegative group)] × 100%, (ODempty blank group absorbance, ODtest absorbance of administration group, ODnegative group without cell culture medium). Each group contained six compound holes, and the experimental results averaged three trials. Complete medium containing only cells was used as the blank control; a complete medium without cells as was used as the negative control; and cisplatin, paclitaxel, and adriamycin were used as the positive controls. The concentration gradient was the same as that used for compounds 3a–3p. […]
For orientation: Tetrazolium assays rely on reduction of a dye to a coloured formazan, in cell work by metabolically active cells.

A further assay relates to SiHa cells. As to the kind of experiment: MTT anti-proliferation assay, SiHa. The note with it: Homo sapiens, 48 h, mean ± SD. Type of assay: cell-based, human. The method, then: (§1) All cell types, at a volume of 200 µL per well, were inoculated in 96-well plates at a density of 2.5 × 10^4 cells / mL and cultured for 24 h in an incubator with 5% CO2 at 37 °C. The old culture medium was replaced with 200 µL of fresh medium per well containing positive compounds, at concentrations of 1, 6.25, 12.5, 25, 50, and 100 μM. After 48 h of culture, 20 µL per well of 5 mg·mL^−1 MTT solution was added. After 4 h of culture, the old solution was discarded, and 150 µL per well of DMSO solution was added. Using an enzyme labeler (Thermo Fisher Scientific, Multiskan GO, Waltham, MA, USA), the plates were shaken for 10 min, OD values were determined at 490 nm, and the inhibition rate was calculated. Non-linear regression fitting of the cell growth rate was carried out using SPSS 23.0, and the IC50 of the compound was calculated. The inhibition rate was calculated using the formula: [(ODempty − ODtest)/(ODempty − ODnegative group)] × 100%, (ODempty blank group absorbance, ODtest absorbance of administration group, ODnegative group without cell culture medium). Each group contained six compound holes, and the experimental results averaged three trials. Complete medium containing only cells was used as the blank control; a complete medium without cells as was used as the negative control; and cisplatin, paclitaxel, and adriamycin were used as the positive controls. The concentration gradient was the same as that used for compounds 3a–3p.

For another assay, the system named is C33A cells. As to the kind of experiment: MTT anti-proliferation assay, C33A. Type of assay: cell-based, human. As to conditions: Homo sapiens, C-33-A, 48 h, mean ± SD. The method, then:
as §1

Assay [2] has as its system human cervical epithelial cells H8. As to the kind of experiment: MTT toxicity assay, normal cervical epithelial cells H8. It is filed as cell-based. As to conditions: Homo sapiens, Epithelial cell, 48 h, mean ± SD. The method, then:
as §1

The test system of assay [3] is HeLa/DDP cells. As to the kind of experiment: MTT anti-cisplatin-resistant cervical cancer activity, HeLa/DDP. Type of assay: cell-based, human. The note with it: 48 h. The method, then:
as §1
To mitigate the detrimental consequences arising from the fixation of resistance reversal agents, concentrations that yielded a tumor cell proliferation rate reduction of less than 10% were selected. Consequently, the inhibitory efficacy of compound 3k against HeLa/DDP cells was assessed in conjunction with cisplatin at concentrations of 0.25, 0.5, and 1 μM. The experimental procedure employed was akin to that elucidated in Section 3.3.2. The impact of verapamil (6 μM) and 3k (0.25, 0.5, and 1 μM) on P-gp expression was ascertained via Western blot experiments, employing the same methodology delineated in Section 3.3.4.

Assay [4] has as its system HeLa/DDP cells. Put plainly: Annexin V-FITC/PI pro-apoptosis assay, HeLa/DDP. As to conditions: 24 h, 20 μM. Type of assay: cell-based, human. The protocol:
Cell fluid (2 mL per well) at a concentration of 1.5 × 10^5 cells / mL was added to a 6-well plate and cultured in a cell incubator with 5% CO2 at 37 °C for 24 h. The old solution was discarded; 2 mL of the medium containing compound 3k was added to each well at a concentration gradient of 2.5, 5, and 10 μM; and the experiment was repeated three times at each concentration. Complete medium containing only cells was used as a blank control group, and 20 μM of cisplatin injection and chalcone was used as a positive control. Cells were harvested following a 24 h incubation period, adhering to the guidelines provided with the BD kit (BD Biosciences Pharmingen, 556547, 10975 Torreyana Road, San Diego, CA, USA). Subsequently, the cells were subjected to staining in a light-restricted environment at ambient temperature for a duration of 15 min, followed by filtration and analysis via flow cytometry.
The pro-apoptotic experiments of compound 3k, cisplatin, and chalcone on HeLa/DDP were performed in the same way as in Section 3.3.3. Western Blotting Analysis in the same way as in Section 3.3.4.

The test system of assay [5] is HeLa cells. Put plainly: Transwell migration assay, HeLa. As to conditions: 24 h, 20 μM, control 1176. It is filed as cell-based, human. The protocol: (§2) HeLa (5 × 10^4 cells) was suspended in 200 μL of FBS-free medium. The top chamber contained the vehicle and various concentrations of compound 3k (2.5, 5, and 10 μM), cisplatin (20 μM) and chalcone (20 μM). The lower chamber was filled with 600 μL of medium containing 10% FBS. After incubating at 37 °C for 24 h, the cells on the top side of the Transwell membrane were removed with a cotton tip. Cells were fixed and stained with 4% paraformaldehyde (LEAGENE BIOTECHNOLOGY, Cat:DF0135, Lot:0823A23, Zhongguancun, Haidian District, Beijing, China) and 0.1% crystal violet solutions (Leagene Biotechnology, Cat:DZ0055, Lot:0508A23, Zhongguancun, Haidian District, Beijing, China) for 30 min to fix cells trapped on the perforated side of the membrane.

Assay [6] has as its system HeLa cells. As to the kind of experiment: Transwell Matrigel invasion assay, HeLa. Type of assay: cell-based, human. As to conditions: 24 h, 20 μM. The method, then: (§3) The Transwell ([…], Corning Incorporated, New York, NY, USA) was precoated using 50 μL Matrigel for 5 h at 37 °C to achieve solidification. HeLa cells was collected and suspended in a serum-free medium containing varying concentrations (0, 2.5, 5, and 10 μM) of compound 3k, along with 20 μM cisplatin and chalcone. These cell suspensions were then added to the upper wells of a permeabilization chamber at a density of 5 × 10^5 cells/mL. In the lower wells, 600 μL of DMEM containing 10% FBS was added, which had been prepared using 50 μL of Matrigel (diluted 1:8 with serum-free medium from Corning/BD Biosciences). After 24 h of incubation at 37 °C, the invasion cells were fixed using 4% paraformaldehyde and stained using 0.1% crystal violet for 30 min. Then, the chambers were washed using PBS and left to dry. Images were photographed using an inverted fluorescence microscope (Leica Instruments Co., Ltd., Microsystems CMS GmbH, Weizler, Hesse, Germany) and counted using Image J software (V1.8.0.112) for three independent fields randomly.

Assay [7] relates to HeLa/DDP cells. As to the kind of experiment: Transwell migration assay, HeLa/DDP. Type of assay: cell-based, human. As to conditions: 24 h, 20 μM, control 497. The method, then: as §2
(§4) The experimental methods for the effects of compound 3k, cisplatin, and chalcone on HeLa/DDP cell invasion and migration were the same as in Section 3.3.6.

Assay [8] has as its system HeLa/DDP cells. Put plainly: Transwell Matrigel invasion assay, HeLa/DDP. As to conditions: 24 h, 20 μM, control 399. Type of assay: cell-based, human. The protocol:
as §3, §4

In assay [9] the test system is α-/β-tubulins in HeLa cells. Put plainly: Western blot of polymerized and dissociated α-/β-tubulins, HeLa. Type of assay: cell-based, human. The note with it: 24 h, versus control. The protocol:
(§5) HeLa cells were cultured in 60 mm Petri dishes at a density of 1.0 × 10^6 cells per dish and treated with 0.1% DMSO (vehicle), positive control chalcone (20 μM), and different concentrations of compound 3k (2.5, 5, and 10 μM), respectively. Following a 24 and 48 h incubation period, the cells were harvested via centrifugation and subsequently washed twice with PBS that had been chilled to 0 °C. Next, the cells were homogenized using RIPA lysis buffer (Solarbio, Beijing, China) and supplemented with 1% PMSF (MP Biomedicals, 0754-25G, CAS:329-98-6, Santa Ana, CA, USA) and 1% mixed phosphatase inhibitor (Solarbio, Beijing, China). The resulting lysates were then incubated on ice for 30 min, intermittently vortexed every 5 min, and subsequently centrifuged at 12,000 rpm for 20 min to collect the supernatants.
(§6) Subsequently, the protein concentrations were determined utilizing a BCA Protein Assay Kit (Solarbio, China). An equivalent quantity of the proteins (12 μg) was fractionated via 8–12% sodium dodecyl sulfate–polyacrylamide gel electrophoresis (SDS-PAGE) and transferred onto nitrocellulose membranes (Amersham Biosciences, Amersham, UK). Following this, the membranes were obstructed with 5% nonfat dried milk in TBS containing 1% Tween-20 for a duration of 2 h at ambient temperature and were subjected to overnight incubation with specific primary antibodies (CST, Boston, MA, USA) at 4 °C. Following three washes in TBST, the membranes were subjected to incubation with the suitable HRP-conjugated secondary antibodies at ambient temperature for a duration of 2 h. The blots were subsequently visualized using enhanced chemiluminescence (Biosharp, Shanghai, China) and detected utilizing a PE 0723 imager (ProteinSimple, Silicon Valley, CA, USA). Each experiment was conducted in triplicate at minimum and analyzed employing Image J software (V1.8.0.112). β-actin(ab198991) rabbit mAb, goat anti-rabbit IgG (H + L) HRP—#S0001 (Affinity). Bax (ab289364), Bcl-2 (ab218123), MDR1/ABCB1 (E1Y7B) rabbit mAb #13342 (CST).
(§7) Polymerized and free microtubule proteins were extracted using the methods described in references, respectively. Following drug intervention, the cells were subjected to two washes with preheated microtubule protein buffer MTSB at 37 °C. Subsequently, 70 μL of MTSB was added, and the cells were lysed for 10 min at 37 °C in a constant temperature chamber shielded from light. The cells were then scraped with a spatula and centrifuged at 14,000 r/min for 10 min at room temperature. The resulting supernatant, which represented the free state microtubule protein suspension, was subsequently removed. The remaining precipitate was treated with RIPA lysis solution, followed by lysis on ice for a duration of 30 min. Subsequently, centrifugation was performed at a temperature of 4 °C and a speed of 12,000 revolutions per minute for a duration of 20 min. The resulting supernatant was collected as a suspension of polymerized microtubule protein. The Western blotting procedure was the same as in Section 3.3.4. α-Tubulin (DM1A) Mouse mAb#3873 (CST), β-Tubulin (D2N5G) Rabbit mAb #15115 (CST), CoraLite488-conjugated Goat Anti-Mouse lgG(H+L) (Proteintech); CoraLite488-conjugated Goat Anti-Rabbit lgG(H+L) (Proteintech); β-actin(ab198991) rabbit mAb, Goat Anti-Mouse IgG H&L (HRP) (ab6789); Goat anti-Rabbit IgG (H+L) HRP—#S0001 (Affinity).
Background: In western blotting, separated proteins are transferred to a membrane and probed.

The test system of assay [10] is α-/β-tubulins in HeLa/DDP cells. As to the kind of experiment: Western blot of polymerized and dissociated α-/β-tubulins, HeLa/DDP. It is filed as cell-based, human. As to conditions: 24 h, versus control. The method, then:
as §5, §6, §7

As usually defined, the IC50 is the midpoint of a concentration-inhibition curve. Read a high IC50 as a need for much substance. In the case of `O=C(/C=C/c1ccccc1)c1ccccc1` [Chalcone, (E)-chalcone], the half-maximal inhibitory concentration (IC50) in the assay on HeLa cells [1] was 67 ± 4.56 µM; in the assay with SiHa cells it was 62 ± 1.84 µM; in the assay with C33A cells it was 37.5 ± 1.5 µM; in assay [2], 78.5 ± 7.78 µM; in the assay with HeLa/DDP cells [3] (Homo sapiens, HeLa/DDP, MTT, mean ± SD), 88 ± 7.27 µM. Moreover, the “resistance index (RI)” value with HeLa/DDP cells [3] (HeLa/DDP versus parental HeLa) was 1.31. The same molecule returned a pro-apoptotic rate in the assay with HeLa/DDP cells [4] of 13.8%. The “number of migrated cells” value in the assay with HeLa cells [5] came to 689; in the assay with HeLa/DDP cells [7], 319. Further, in the assay with HeLa cells [6], the “number of cells undergoing invasion” value is given as 422. The “number of invasion cells” value in the assay with HeLa/DDP cells [8] is given as 347.
For the molecule `COc1cc2c(c(OC)c1OC)-c1ccc(OC)c(=O)cc1[C@@H](NC(C)=O)CC2` [colchicine], the “expression of dissociated state α and β microtubule proteins” value in assay [9] (3k 4 μM, colchicine 2 μM, paclitaxel 2.0 μM) is “significantly increased”; in [10] (3k 4 μM, colchicine and paclitaxel 2.0 μM), “increase”. Further, in assay [9] (3k 2 and 4 μM, colchicine and paclitaxel 2.0 μM), the “expression of α and β microtubule proteins in the polymerized state” value is “decrease”. Further, the “expression of polymerized state α and β microtubule proteins” value in [10] (positive drugs 2.0 μM) is reported as “significant decrease”.
